Patent US20260000698A1 (priority 2022, published 2026)
Marks after values point to notes of the source that are not given here.

Assays:
DNMT1 = target: T1, DNMT1 (Homo sapiens, UniProt P26358); experiment: Human MTase screening: DNMT1; format: biochemical
T1 construct: purchased BPS Bioscience
Description: (§1) Assay conditions. The human methyltransferase inhibition assays were performed at BPS Bioscience (San Diego, CA, USA). All of the enzymatic reactions were conducted in duplicate at room temperature for 60-960 min in a 50 μL mixture containing proper methyltransferase assay buffer, S-adenosylmethionine (SAM), enzyme, and the test compound. These 50 μL reactions were carried out in wells of a substrate pre-coated plate. First, enzyme and inhibitor were added to assay wells and preincubated for 30 min at room temperature, then SAM was added to start the reaction. Final DMSO concentration was 1% in all reactions.
(§2) After enzymatic reactions, the reaction mixtures were discarded and each of the wells was washed three times with TBST buffer, and slowly shaken with Blocking Buffer for 10 min. Wells were emptied, and 100 μL of diluted primary antibody was added. The plate was then slowly shaken for 60 minutes at room temperature. […] Immediately, the luminescence of the samples was measured in a BioTek Synergy™ 2 (Winooski, VT, USA) microplate reader using Gen5 software.
(§3) Data analysis. […] The luminescence data/alpha counts were analyzed and compared. […] The percent activity in the presence of each compound was calculated according to the following equation: % activity=(C−C0)/(Ce−C0), where C=the luminescence/alpha counts in the presence of the compound.

[1] = Liver S9 stability assay, mouse liver S9; conditions: n = 2, mean±SD
DNMT3A/DNMT3L = target: T2, DNMT3A/DNMT3L (Homo sapiens, UniProt Q9Y6K1); experiment: Human MTase screening: DNMT3A/DNMT3L; format: biochemical
T2 construct: purchased BPS Bioscience
Description: as §1, §2, §3

PRMT3 = target: T3, PRMT3 (Homo sapiens, UniProt O60678); experiment: Human MTase screening: PRMT3; format: biochemical
T3 construct: purchased BPS Bioscience
Description: as §1, §2, §3

MLL1 Complex = target: T4, MLL1 Complex (Homo sapiens, UniProt Q03164); experiment: Human MTase screening: MLL1 Complex; format: biochemical
T4 construct: purchased BPS Bioscience
Description: as §1, §2, §3

PRMT1 = target: T5, PRMT1 (Homo sapiens, UniProt Q99873); experiment: Human MTase screening: PRMT1; format: biochemical
T5 construct: purchased BPS Bioscience
Description: as §1, §2, §3

[2] = Parallel artificial membrane permeability assay (PAMPA); format: in vitro ADME
Description: Parallel artificial membrane permeability assay (PAMPA).^5 The membrane permeability of selected compounds was evaluated using the Corning® BioCoat™ Pre-coated PAMPA Plate System (Corning 353015; Glendale, AZ, USA). The pre-coated plate assembly, which was stored at −20° C., was taken to thaw for 30 min at room temperature. The permeability assay was carried out in accordance with the manufacturer's protocol. Briefly, the 96-well filter plate, pre-coated with lipids, was used as the permeation acceptor and a matching 96 well receiver plate was used as the permeation donor. Compound solutions were prepared by diluting the 10 mmol/L DMSO stock solutions with 10% methanol in DPBS to a final concentration of […]. The compound solutions were added to the wells (300 μL/well) of the receiver plate and DPBS with 10% methanol was added to the wells (200 μL/well) of the pre-coated filter plate. The filter plate was then coupled with the receiver plate and the plate assembly was incubated at 25° C. without agitation for 5 h. At the end of the incubation, the plate was separated and the final concentrations of compounds in both donor wells and acceptor wells were analyzed using LC-MS/MS. Permeability of a compound was calculated using the Eq. (1):
where A=filter area (0.3 cm^2), VD=donor well volume (0.3 mL), VA=acceptor well volume (0.2 mL), t=incubation time (seconds), CA(t)=compound concentration in acceptor well at time t, CD(t)=compound concentration in donor well at time t, and Ceq was calculated using the Eq. (2): […]
A cutoff criterion of Pe value at […] was used to classify the compounds into high and low permeability according to the literature report of this PAMPA plate system^1.

SARS-CoV-2 Nsp14 MTase = SARS-CoV-2 Nsp14 MTase (Severe acute respiratory syndrome coronavirus 2, UniProt P0DTD1); experiment: biochemical; format: biochemical
[3] = Plasma stability assay, mouse plasma; format: in vitro ADME, mouse (CD-1)
Description: (§4) Plasma stability assay. The plasma stability assay was performed in triplicate by incubating each selected compound (1 μmol/L final concentration) in normal mouse (CD-1) or human plasma (Innovative Research; Novi, MI, USA) diluted to 80% with 0.1 mol/L potassium phosphate buffer (pH 7.4) at 37° C. At 0, 1, 3, 6, and 24 h, a 50 μL aliquot of the plasma mixture was taken and quenched with 150 μL of acetonitrile containing 0.1% formic acid. The samples were then vortexed and centrifuged at 15,000 rpm (Eppendorf centrifuge 5424R; Enfield, CT, USA) for 5 min. The supernatants were collected and analyzed by LC-MS/MS to determine the in vitro plasma half-life (t1/2).

[4] = tested on: SARS-CoV-2 isolate USA-WA1/2020; conditions: inhibition at 50 μM
[5] = Plasma stability assay, human plasma; format: in vitro ADME
Description: as §4

panel of 10 human MTases = experiment: Human MTase screening, whole panel; format: biochemical; conditions: 10 μM
Description: To evaluate selectivity over human MTases, compound 3 was screened against a panel of 10 human MTases including histone lysine, protein arginine, DNA and RNA MTases. […] These preliminary results bolstered our premise that it was feasible to design selective Nsp14 MTase because of its unique structure in contrast to the canonical Rossmann fold.
as §1, with “First, enzyme and inhibitor were added to assay wells and preincubated for 30 min at room temperature, then SAM was added to start the reaction. Final DMSO concentration was 1% in all reactions.” left out
as §2, with “min.” for “min. Wells were emptied, and 100 μL of diluted primary antibody was added. The plate was then slowly shaken for 60 minutes at room temperature.”
as §3

EZH1 = target: T6, EZH1 (Homo sapiens, UniProt Q92800); experiment: Human MTase screening: EZH1; format: biochemical
T6 construct: purchased BPS Bioscience
Description: as §1, §2, §3

[6] = Liver S9 stability assay, human liver S9; conditions: n = 2, mean±SD

T2 sequence (Q9Y6K1 whole entry, looked up): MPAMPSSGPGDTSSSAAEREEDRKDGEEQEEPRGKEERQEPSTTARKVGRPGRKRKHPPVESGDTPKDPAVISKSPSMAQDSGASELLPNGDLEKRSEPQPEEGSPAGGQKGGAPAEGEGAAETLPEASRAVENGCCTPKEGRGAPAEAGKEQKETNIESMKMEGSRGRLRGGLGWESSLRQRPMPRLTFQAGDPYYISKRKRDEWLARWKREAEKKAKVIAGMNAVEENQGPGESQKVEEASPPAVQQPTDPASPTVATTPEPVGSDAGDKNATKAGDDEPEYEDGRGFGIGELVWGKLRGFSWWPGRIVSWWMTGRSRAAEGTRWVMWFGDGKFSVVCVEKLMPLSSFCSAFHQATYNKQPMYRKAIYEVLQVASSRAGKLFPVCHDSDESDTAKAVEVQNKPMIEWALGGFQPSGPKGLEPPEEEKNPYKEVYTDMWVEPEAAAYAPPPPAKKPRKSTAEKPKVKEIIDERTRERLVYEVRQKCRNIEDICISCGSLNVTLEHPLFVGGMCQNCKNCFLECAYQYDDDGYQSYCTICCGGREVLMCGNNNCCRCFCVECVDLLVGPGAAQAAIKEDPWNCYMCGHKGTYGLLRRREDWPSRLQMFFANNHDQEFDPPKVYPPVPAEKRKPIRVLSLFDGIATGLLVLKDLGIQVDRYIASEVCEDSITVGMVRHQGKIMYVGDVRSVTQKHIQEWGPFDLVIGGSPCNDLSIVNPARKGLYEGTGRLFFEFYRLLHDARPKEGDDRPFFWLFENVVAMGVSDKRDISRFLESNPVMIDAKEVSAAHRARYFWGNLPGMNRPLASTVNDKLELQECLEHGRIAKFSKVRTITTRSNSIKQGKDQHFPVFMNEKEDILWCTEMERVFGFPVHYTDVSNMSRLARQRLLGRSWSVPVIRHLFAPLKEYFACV
T2 sequence (Q9UJW3 whole entry partner): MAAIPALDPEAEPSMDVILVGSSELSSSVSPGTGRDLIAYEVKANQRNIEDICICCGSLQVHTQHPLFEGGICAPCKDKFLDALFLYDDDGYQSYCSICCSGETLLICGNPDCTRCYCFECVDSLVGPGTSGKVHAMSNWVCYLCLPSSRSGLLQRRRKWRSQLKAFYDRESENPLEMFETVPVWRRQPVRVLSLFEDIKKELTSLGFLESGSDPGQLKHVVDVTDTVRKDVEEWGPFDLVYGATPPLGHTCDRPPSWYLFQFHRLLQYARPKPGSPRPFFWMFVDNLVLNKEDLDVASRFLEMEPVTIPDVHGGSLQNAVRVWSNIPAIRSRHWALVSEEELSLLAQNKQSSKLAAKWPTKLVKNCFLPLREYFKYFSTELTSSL
T6 sequence (Q92800 whole entry): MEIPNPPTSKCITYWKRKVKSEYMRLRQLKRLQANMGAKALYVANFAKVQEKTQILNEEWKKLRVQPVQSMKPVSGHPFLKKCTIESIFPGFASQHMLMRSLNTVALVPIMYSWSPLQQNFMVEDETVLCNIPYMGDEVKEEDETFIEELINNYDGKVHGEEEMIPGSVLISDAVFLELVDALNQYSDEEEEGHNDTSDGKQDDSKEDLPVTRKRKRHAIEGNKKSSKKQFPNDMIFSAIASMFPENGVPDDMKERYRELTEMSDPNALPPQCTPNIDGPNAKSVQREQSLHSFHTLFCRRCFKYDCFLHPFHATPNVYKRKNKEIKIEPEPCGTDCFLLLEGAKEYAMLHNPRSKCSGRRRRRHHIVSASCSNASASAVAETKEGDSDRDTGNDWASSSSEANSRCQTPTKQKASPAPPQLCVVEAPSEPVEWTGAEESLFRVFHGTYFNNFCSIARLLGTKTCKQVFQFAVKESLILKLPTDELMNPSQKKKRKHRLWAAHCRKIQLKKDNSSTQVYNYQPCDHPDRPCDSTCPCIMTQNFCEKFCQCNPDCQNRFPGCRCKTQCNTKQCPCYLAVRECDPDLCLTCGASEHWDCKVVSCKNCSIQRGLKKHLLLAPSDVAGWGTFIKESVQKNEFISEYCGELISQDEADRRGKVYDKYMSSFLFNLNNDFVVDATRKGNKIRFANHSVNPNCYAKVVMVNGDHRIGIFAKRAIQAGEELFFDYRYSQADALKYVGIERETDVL
T6 sequence (O75530 whole entry partner): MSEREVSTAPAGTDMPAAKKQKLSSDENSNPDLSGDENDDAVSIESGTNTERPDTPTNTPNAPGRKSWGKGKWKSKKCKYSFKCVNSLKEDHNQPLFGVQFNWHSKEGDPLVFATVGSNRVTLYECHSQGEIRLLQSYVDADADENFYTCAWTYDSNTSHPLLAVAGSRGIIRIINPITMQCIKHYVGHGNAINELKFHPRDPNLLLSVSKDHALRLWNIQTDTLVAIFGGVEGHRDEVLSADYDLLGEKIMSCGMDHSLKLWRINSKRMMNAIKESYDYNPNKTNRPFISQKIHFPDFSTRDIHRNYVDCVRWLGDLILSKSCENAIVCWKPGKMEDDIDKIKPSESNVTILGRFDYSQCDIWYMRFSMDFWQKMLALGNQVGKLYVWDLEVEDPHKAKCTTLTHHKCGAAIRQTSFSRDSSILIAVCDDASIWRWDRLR
T6 sequence (Q15022 whole entry partner): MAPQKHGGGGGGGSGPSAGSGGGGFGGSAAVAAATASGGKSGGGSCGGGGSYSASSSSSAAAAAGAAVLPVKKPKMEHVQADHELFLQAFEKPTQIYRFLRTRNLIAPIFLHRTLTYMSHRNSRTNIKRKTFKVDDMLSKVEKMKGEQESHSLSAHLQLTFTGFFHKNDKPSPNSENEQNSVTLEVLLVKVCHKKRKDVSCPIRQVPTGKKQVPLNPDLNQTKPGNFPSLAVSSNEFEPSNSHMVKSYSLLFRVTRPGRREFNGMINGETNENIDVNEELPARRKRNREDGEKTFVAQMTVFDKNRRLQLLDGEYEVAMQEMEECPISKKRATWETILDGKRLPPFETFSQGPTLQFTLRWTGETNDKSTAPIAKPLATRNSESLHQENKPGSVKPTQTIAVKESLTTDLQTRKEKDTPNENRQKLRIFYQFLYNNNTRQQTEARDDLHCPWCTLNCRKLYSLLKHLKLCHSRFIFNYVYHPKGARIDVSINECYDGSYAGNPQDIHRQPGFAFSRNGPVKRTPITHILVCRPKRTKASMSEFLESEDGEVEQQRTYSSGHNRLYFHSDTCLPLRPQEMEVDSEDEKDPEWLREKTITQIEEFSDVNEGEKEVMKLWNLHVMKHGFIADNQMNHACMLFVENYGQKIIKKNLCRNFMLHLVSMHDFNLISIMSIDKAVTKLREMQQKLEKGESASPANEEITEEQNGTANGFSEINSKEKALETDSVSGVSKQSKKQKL
T6 sequence (Q09028 whole entry partner): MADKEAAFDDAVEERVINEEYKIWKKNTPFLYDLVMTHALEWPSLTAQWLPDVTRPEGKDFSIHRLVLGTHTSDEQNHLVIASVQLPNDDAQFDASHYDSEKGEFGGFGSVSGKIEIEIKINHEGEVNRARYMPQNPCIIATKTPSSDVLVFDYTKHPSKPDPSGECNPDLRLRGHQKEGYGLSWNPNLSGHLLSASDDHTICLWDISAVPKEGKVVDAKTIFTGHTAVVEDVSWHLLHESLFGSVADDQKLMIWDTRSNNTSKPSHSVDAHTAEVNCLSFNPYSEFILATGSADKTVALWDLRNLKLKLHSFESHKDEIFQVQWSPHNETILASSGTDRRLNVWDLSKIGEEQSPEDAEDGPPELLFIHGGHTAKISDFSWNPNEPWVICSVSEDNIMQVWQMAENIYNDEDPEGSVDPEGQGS
T6 sequence (Q6ZN18 whole entry partner): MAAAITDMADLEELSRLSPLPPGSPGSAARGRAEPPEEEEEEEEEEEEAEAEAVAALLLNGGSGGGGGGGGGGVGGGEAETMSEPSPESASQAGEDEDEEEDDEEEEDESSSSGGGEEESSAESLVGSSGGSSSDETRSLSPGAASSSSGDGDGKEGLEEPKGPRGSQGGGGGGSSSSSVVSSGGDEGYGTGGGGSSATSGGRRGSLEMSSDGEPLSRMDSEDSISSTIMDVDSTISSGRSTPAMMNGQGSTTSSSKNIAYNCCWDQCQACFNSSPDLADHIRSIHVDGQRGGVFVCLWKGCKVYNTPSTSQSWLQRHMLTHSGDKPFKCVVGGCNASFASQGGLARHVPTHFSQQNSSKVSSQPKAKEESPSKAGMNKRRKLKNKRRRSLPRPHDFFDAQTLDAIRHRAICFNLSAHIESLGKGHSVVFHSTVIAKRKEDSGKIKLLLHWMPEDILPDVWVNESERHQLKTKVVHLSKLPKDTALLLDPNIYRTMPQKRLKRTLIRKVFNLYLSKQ
T5 sequence (Q99873 whole entry): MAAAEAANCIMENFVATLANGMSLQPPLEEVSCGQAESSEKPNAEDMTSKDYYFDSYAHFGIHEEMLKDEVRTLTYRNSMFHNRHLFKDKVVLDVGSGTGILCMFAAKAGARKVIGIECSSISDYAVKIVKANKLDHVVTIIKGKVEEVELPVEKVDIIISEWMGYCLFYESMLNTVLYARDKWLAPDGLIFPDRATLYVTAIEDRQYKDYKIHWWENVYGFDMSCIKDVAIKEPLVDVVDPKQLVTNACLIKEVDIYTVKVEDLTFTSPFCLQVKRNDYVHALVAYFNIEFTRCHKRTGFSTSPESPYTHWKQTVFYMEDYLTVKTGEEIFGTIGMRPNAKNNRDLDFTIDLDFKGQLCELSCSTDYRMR

Nc1ncnc2c1ncn2[C@@H]1O[C@H](CNS(=O)(=O)c2ccc3ccccc3c2)[C@@H](O)[C@H]1O [Compound 3, N-(((2R,3S,4R,5R)-5-(6-Amino-9H-purin-9-yl)-3,4-dihydroxytetrahydrofuran-2-yl)methyl)naphthalene-2-sulfonamide]
inhibition at 10 µM (DNMT1): 5% | Mouse Liver S9 Stability t1/2, Phase I ([1]; cofactor NADPH): 4.55 ± 0.383 h | Mouse Liver S9 Stability t1/2, Phase II ([1]; cofactor UDPGA): >45^e min | inhibition at 10 µM (DNMT3A/DNMT3L): 4% | inhibition at 10 µM (PRMT3): 0% | inhibition at 10 µM (MLL1 Complex): 1% | inhibition at 10 µM (PRMT1): 5% | passive diffusion rate in PAMPA ([2]; PAMPA): equally low | PAMPA Permeability Pe ([2]; n = 6, mean±SD, 25° C., 5 h): 0.2 ± 0.1 10^−6 cm/s | IC50 (SARS-CoV-2 Nsp14 MTase; LC-MS/MS assay, read-out: IC50): 61 nM | fold more active than compound 1 (SARS-CoV-2 Nsp14 MTase; MTase IC50 vs compound 1): > 150 fold | Plasma Stability t1/2, Mouse ([3]; mouse plasma, 37° C., n = 3): >24^d h | stability in mouse plasma ([3]; mouse, plasma): remarkably stable | EC50: NA (not active) [4]: NA^a (NA, not active, <15% inhibition at 50 μM.) | Plasma Stability t1/2, Human ([5]; human plasma, 37° C., n = 3): >24^d h | stability in human plasma ([5]; human, plasma): remarkably stable | stability in human liver S9 fractions: resistant to phase I and II transformations | inhibition of a panel of 10 human MTases (panel of 10 human MTases): minimal inhibition | inhibition at 10 µM (EZH1): 2% | Human Liver S9 Stability t1/2, Phase I ([6]; cofactor NADPH): 11.2 ± 2.27 h | Human Liver S9 Stability t1/2, Phase II ([6]; cofactor UDPGA): >45^e min
